We go through twelve compounds from ChEMBL document CHEMBL5442219.

Details in all cases: Compound concentration 10 µM
For assay [1], the target named is T1, Muscarinic acetylcholine receptor M2 (Homo sapiens) (UniProt P08172).
T1 sequence (whole entry): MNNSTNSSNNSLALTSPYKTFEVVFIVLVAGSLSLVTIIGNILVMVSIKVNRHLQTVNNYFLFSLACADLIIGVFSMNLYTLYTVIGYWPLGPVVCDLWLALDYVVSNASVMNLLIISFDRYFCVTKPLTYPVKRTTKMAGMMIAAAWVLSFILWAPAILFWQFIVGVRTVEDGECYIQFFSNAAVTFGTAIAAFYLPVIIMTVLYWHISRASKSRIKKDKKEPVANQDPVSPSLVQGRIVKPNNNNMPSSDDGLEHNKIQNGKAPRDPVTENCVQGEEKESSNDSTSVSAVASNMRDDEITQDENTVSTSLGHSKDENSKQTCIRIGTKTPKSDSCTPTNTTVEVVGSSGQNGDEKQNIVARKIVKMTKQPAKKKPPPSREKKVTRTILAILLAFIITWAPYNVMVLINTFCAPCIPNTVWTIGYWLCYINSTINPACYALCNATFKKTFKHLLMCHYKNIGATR
Description: PDSP Primary Binding target: CHRM2 - Compounds are tested at 10 uM concentration, plate are incubated at room temperature in the dark for 90 minutes. Reaction are stopped by vacuum filtration onto 0.3% polyethyleneimine soaked filter mats using Filtermate harvester. Scintilation cocktail is then melted onto microwave-dried filters on a hot plate and the radio activity is counted in Microbia counter.

In assay [2] the target is T2, Alpha-2B adrenergic receptor (Homo sapiens) (UniProt P18089).
T2 sequence (whole entry): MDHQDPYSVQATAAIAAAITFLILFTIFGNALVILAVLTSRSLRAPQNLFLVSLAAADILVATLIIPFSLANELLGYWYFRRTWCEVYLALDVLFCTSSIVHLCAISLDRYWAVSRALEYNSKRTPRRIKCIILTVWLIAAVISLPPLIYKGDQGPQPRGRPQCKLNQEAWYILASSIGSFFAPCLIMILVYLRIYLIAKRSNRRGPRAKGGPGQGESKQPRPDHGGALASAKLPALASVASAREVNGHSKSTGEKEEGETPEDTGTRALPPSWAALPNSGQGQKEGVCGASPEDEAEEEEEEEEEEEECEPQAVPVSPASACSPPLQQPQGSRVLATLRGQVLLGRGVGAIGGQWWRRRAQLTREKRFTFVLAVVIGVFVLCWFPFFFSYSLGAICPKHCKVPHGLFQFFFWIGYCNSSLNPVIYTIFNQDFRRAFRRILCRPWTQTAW
Description: PDSP Primary Binding target: ADRA2B - Compounds are tested at 10 uM concentration, plate are incubated at room temperature in the dark for 90 minutes. Reaction are stopped by vacuum filtration onto 0.3% polyethyleneimine soaked filter mats using Filtermate harvester. Scintilation cocktail is then melted onto microwave-dried filters on a hot plate and the radio activity is counted in Microbia counter.

Assay [3] deals with Sodium-dependent noradrenaline transporter (Homo sapiens) (UniProt P23975).
Description: PDSP Primary Binding target: SLC6A2 - Compounds are tested at 10 uM concentration, plate are incubated at room temperature in the dark for 90 minutes. Reaction are stopped by vacuum filtration onto 0.3% polyethyleneimine soaked filter mats using Filtermate harvester. Scintilation cocktail is then melted onto microwave-dried filters on a hot plate and the radio activity is counted in Microbia counter.
Assay [4] concerns the target 5-hydroxytryptamine receptor 1E (Homo sapiens) (UniProt P28566).
Description: PDSP Primary Binding target: HTR1E - Compounds are tested at 10 uM concentration, plate are incubated at room temperature in the dark for 90 minutes. Reaction are stopped by vacuum filtration onto 0.3% polyethyleneimine soaked filter mats using Filtermate harvester. Scintilation cocktail is then melted onto microwave-dried filters on a hot plate and the radio activity is counted in Microbia counter.
Assay [5] addresses Sigma non-opioid intracellular receptor 1 (Homo sapiens) (UniProt Q99720).
Description: PDSP Primary Binding target: SIGMAR1 - Compounds are tested at 10 uM concentration, plate are incubated at room temperature in the dark for 90 minutes. Reaction are stopped by vacuum filtration onto 0.3% polyethyleneimine soaked filter mats using Filtermate harvester. Scintilation cocktail is then melted onto microwave-dried filters on a hot plate and the radio activity is counted in Microbia counter.
Assay [6] concerns the target T3, Alpha-2C adrenergic receptor (Homo sapiens) (UniProt P18825).
T3 sequence (whole entry): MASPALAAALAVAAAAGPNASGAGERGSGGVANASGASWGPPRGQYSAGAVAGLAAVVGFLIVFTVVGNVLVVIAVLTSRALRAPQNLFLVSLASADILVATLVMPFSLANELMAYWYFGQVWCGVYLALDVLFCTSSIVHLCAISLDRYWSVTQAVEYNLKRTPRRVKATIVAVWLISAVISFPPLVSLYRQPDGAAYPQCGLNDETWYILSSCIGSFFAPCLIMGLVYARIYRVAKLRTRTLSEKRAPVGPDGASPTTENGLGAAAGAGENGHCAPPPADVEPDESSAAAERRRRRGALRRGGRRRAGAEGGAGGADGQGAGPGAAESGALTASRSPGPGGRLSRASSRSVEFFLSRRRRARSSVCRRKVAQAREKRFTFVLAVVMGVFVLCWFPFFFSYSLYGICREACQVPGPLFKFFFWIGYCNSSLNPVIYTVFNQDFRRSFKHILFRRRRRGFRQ
Description: PDSP Primary Binding target: ADRA2C - Compounds are tested at 10 uM concentration, plate are incubated at room temperature in the dark for 90 minutes. Reaction are stopped by vacuum filtration onto 0.3% polyethyleneimine soaked filter mats using Filtermate harvester. Scintilation cocktail is then melted onto microwave-dried filters on a hot plate and the radio activity is counted in Microbia counter.

Assay [7] concerns the target Beta-1 adrenergic receptor (Homo sapiens) (UniProt P08588).
Description: PDSP Primary Binding target: ADRB1 - Compounds are tested at 10 uM concentration, plate are incubated at room temperature in the dark for 90 minutes. Reaction are stopped by vacuum filtration onto 0.3% polyethyleneimine soaked filter mats using Filtermate harvester. Scintilation cocktail is then melted onto microwave-dried filters on a hot plate and the radio activity is counted in Microbia counter.
Assay [8] has as its target Translocator protein (Homo sapiens) (UniProt P30536).
Description: PDSP Primary Binding target: TSPO - Compounds are tested at 10 uM concentration, plate are incubated at room temperature in the dark for 90 minutes. Reaction are stopped by vacuum filtration onto 0.3% polyethyleneimine soaked filter mats using Filtermate harvester. Scintilation cocktail is then melted onto microwave-dried filters on a hot plate and the radio activity is counted in Microbia counter.
In assay [9] the target is Histamine H3 receptor (Homo sapiens) (UniProt Q9Y5N1).
Description: PDSP Primary Binding target: HRH3 - Compounds are tested at 10 uM concentration, plate are incubated at room temperature in the dark for 90 minutes. Reaction are stopped by vacuum filtration onto 0.3% polyethyleneimine soaked filter mats using Filtermate harvester. Scintilation cocktail is then melted onto microwave-dried filters on a hot plate and the radio activity is counted in Microbia counter.
In assay [10] the target is 5-hydroxytryptamine receptor 6 (Homo sapiens) (UniProt P50406).
Description: PDSP Primary Binding target: HTR6 - Compounds are tested at 10 uM concentration, plate are incubated at room temperature in the dark for 90 minutes. Reaction are stopped by vacuum filtration onto 0.3% polyethyleneimine soaked filter mats using Filtermate harvester. Scintilation cocktail is then melted onto microwave-dried filters on a hot plate and the radio activity is counted in Microbia counter.
The target of assay [11] is T4, Muscarinic acetylcholine receptor M5 (Homo sapiens) (UniProt P08912).
T4 sequence (whole entry): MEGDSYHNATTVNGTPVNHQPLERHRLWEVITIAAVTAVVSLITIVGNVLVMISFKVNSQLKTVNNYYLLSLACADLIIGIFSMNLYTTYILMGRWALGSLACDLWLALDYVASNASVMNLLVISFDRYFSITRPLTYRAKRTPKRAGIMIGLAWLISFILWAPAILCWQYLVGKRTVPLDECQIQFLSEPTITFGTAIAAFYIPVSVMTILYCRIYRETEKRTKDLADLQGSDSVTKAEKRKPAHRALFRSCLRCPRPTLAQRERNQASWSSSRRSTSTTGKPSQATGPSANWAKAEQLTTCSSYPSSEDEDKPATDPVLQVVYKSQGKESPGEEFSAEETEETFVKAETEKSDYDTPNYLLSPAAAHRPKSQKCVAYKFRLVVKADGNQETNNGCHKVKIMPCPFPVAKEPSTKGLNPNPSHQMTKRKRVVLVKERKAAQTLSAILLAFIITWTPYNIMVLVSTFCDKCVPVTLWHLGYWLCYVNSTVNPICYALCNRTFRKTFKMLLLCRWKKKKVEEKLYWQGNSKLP
Description: PDSP Primary Binding target: CHRM5 - Compounds are tested at 10 uM concentration, plate are incubated at room temperature in the dark for 90 minutes. Reaction are stopped by vacuum filtration onto 0.3% polyethyleneimine soaked filter mats using Filtermate harvester. Scintilation cocktail is then melted onto microwave-dried filters on a hot plate and the radio activity is counted in Microbia counter.

Assay [12] deals with T5, Muscarinic acetylcholine receptor M4 (Homo sapiens) (UniProt P08173).
T5 sequence (whole entry): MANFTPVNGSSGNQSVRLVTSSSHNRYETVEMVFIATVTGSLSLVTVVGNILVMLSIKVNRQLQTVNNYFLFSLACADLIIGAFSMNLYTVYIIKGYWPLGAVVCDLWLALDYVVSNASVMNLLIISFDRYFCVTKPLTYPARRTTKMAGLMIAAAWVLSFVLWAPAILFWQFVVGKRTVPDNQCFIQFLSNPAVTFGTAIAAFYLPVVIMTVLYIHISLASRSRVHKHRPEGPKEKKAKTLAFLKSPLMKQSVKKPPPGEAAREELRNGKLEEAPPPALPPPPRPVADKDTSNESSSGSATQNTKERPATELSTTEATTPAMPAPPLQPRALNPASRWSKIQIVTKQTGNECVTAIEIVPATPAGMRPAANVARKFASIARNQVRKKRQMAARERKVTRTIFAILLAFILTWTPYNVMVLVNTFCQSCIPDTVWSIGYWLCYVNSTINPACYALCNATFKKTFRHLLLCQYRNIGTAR
Description: PDSP Primary Binding target: CHRM4 - Compounds are tested at 10 uM concentration, plate are incubated at room temperature in the dark for 90 minutes. Reaction are stopped by vacuum filtration onto 0.3% polyethyleneimine soaked filter mats using Filtermate harvester. Scintilation cocktail is then melted onto microwave-dried filters on a hot plate and the radio activity is counted in Microbia counter.

For assay [13], the target named is 5-hydroxytryptamine receptor 5A (Homo sapiens) (UniProt P47898).
5-hydroxytryptamine receptor 5A (Homo sapiens), sequence (P47898 whole entry): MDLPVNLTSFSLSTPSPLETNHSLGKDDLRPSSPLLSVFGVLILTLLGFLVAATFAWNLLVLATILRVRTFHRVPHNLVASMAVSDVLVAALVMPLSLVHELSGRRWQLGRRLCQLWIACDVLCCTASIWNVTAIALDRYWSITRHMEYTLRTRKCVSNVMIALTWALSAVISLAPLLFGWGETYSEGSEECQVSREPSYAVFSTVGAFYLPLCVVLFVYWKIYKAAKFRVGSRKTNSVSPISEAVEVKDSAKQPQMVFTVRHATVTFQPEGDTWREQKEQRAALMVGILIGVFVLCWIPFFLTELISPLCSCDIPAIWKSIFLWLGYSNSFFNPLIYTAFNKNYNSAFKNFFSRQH
Description: PDSP Primary Binding target: HTR5A - Compounds are tested at 10 uM concentration, plate are incubated at room temperature in the dark for 90 minutes. Reaction are stopped by vacuum filtration onto 0.3% polyethyleneimine soaked filter mats using Filtermate harvester. Scintilation cocktail is then melted onto microwave-dried filters on a hot plate and the radio activity is counted in Microbia counter.

Sodium-dependent noradrenaline transporter (Homo sapiens), sequence (P23975 whole entry): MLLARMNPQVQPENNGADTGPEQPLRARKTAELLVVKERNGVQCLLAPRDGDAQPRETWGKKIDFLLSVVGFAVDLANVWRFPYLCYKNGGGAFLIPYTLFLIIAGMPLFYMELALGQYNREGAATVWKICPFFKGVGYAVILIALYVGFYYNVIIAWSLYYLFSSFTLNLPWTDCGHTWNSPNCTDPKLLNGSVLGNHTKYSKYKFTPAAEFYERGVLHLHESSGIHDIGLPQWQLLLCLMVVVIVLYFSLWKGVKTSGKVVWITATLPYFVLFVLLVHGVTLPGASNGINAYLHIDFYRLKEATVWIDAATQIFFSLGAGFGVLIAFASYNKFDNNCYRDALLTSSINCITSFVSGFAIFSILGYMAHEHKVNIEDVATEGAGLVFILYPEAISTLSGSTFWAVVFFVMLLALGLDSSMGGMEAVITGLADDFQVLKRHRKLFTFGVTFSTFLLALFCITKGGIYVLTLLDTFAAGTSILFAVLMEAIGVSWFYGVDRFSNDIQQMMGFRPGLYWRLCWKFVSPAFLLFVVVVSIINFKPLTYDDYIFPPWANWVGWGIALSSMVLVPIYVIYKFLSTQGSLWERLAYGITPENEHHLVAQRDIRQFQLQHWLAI
5-hydroxytryptamine receptor 1E (Homo sapiens), sequence (P28566 whole entry): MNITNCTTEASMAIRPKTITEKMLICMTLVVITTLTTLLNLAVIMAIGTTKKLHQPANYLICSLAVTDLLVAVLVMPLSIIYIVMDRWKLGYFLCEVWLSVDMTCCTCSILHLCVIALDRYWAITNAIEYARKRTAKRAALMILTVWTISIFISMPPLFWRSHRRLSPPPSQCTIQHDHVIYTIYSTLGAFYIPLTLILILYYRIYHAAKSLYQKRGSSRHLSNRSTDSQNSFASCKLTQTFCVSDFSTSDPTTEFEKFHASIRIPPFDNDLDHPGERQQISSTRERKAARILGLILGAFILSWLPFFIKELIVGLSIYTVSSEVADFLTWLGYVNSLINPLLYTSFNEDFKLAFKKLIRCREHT
5-hydroxytryptamine receptor 6 (Homo sapiens), sequence (P50406 whole entry): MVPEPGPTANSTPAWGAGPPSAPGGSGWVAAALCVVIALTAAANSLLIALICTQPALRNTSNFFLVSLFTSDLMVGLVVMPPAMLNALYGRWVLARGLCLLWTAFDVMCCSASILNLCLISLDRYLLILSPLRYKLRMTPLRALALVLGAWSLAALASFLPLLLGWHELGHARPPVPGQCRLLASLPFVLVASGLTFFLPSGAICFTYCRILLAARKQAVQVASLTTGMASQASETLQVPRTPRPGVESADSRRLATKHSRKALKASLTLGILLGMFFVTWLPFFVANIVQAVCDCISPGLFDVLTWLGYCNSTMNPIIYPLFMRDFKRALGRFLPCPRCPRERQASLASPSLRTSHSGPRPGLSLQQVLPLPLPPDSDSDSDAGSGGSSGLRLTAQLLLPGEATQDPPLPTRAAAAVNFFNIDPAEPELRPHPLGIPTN
Translocator protein (Homo sapiens), sequence (P30536 whole entry): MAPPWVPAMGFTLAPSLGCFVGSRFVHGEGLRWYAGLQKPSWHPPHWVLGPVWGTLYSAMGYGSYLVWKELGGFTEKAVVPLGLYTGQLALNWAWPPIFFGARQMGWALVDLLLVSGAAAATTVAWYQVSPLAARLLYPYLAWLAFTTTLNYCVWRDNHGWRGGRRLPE
Sigma non-opioid intracellular receptor 1 (Homo sapiens), sequence (Q99720 whole entry): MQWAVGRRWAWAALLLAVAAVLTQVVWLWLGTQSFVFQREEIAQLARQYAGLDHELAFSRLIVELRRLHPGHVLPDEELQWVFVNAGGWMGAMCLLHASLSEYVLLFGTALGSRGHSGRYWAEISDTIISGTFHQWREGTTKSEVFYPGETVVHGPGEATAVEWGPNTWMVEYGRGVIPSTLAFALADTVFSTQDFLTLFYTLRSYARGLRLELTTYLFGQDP
Beta-1 adrenergic receptor (Homo sapiens), sequence (P08588 whole entry, looked up): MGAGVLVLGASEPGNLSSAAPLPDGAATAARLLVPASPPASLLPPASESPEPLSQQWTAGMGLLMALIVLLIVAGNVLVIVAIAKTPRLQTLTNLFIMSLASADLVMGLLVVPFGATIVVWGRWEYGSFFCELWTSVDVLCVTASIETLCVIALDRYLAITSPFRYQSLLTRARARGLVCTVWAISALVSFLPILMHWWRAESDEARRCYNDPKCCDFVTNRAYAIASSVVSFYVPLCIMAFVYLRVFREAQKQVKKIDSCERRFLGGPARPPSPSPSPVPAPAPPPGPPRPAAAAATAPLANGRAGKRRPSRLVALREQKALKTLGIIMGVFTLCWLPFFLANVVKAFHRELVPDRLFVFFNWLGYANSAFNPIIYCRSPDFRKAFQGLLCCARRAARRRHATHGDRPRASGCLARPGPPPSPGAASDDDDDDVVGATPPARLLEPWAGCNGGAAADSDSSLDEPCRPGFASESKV
Histamine H3 receptor (Homo sapiens), sequence (Q9Y5N1 whole entry): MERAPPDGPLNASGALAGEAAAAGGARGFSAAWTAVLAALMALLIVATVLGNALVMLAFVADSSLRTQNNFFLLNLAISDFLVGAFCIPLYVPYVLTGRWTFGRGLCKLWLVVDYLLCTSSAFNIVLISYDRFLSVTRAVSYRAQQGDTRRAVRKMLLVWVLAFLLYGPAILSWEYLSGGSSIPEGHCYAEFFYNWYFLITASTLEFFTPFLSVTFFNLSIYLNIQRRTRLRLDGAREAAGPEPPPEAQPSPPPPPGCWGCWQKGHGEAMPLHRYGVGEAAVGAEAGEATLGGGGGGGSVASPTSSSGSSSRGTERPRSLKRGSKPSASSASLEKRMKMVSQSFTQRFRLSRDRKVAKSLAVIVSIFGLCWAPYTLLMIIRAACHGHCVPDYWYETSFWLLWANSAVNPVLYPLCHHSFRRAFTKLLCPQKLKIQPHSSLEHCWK

For the compound `NC[C@H](O)c1ccc(O)c(O)c1`, the inhibition in assay [1] was -6.81%; in [2], 90.6%; in assay [3], 15.2%; in [4] it was 1.24%; in assay [5] it was 39.1%; in assay [6], 79.4%. The inhibition was 66.2% in assay [7] and 4.34% in [8].
As to `CC(C)Oc1ccccc1C(=O)Nc1ccccc1C(=O)Nc1cccc(S(=O)(=O)C(F)(F)F)c1`, the inhibition in [1] was -6.99%; in [9], -5.72%; in assay [10], 36.8%; in assay [11], -4.83%; in assay [4] it was -4.72%; in assay [12], -2.68%. For the same compound, the inhibition in [8] is 66.1%.
As to `CC1=C2C[C@H]3[C@@H](CC=C4C[C@@H](O)CC[C@@]43C)[C@@H]2CC[C@]12O[C@@H]1C[C@H](C)CN[C@H]1[C@H]2C`, the inhibition was -1.88% in assay [1]; 32.2% in [9]; 6.19% in [4]; 10.2% in [5]; -3.27% in [7]; -3.11% in assay [12]. In addition, in [8], the inhibition was 13.5%.
With `O=C(O)Cn1c(C(=O)Nc2nc(-c3ccccc3Cl)cs2)cc2ccccc21`, the inhibition is 0.82% in [1]; 2.63% in assay [2]; -1.46% in assay [9]; 3.11% in assay [4]; 9.14% in assay [5]; 0.91% in assay [6]. The inhibition in assay [7] was 30.9%; in [13] it was 18.6%; in [8] it was 20.4%.
Take `N#Cc1c(O)nc(SCc2cccc(F)c2F)nc1C1CC1`: the inhibition is 28.1% in assay [1]; -6.93% in [2]; 18.8% in assay [9]; 9.18% in [10]; -1.64% in assay [3]; -5.94% in assay [4]. In addition, the inhibition in assay [5] is 18.2%; in assay [6], 5.91%; in assay [7], 28.6%; in [13] it was 8.42%; in assay [8], 40.4%.
For the compound `CC(C)NC(=O)c1ccc(C#Cc2ccncc2)cn1`, the inhibition in assay [1] is 53.1%; in assay [2], -0.82%; in assay [10], -2.79%; in [11] it was 43.2%; in [4], -1.26%; in assay [5], 68.4%. Also, the inhibition in assay [12] is 30.9%.
In the case of `COc1cccc(-c2c(C)n(Cc3c(F)cccc3C(F)(F)F)c(=O)n(C[C@H](NCCCC(=O)O)c3ccccc3)c2=O)c1F`, the inhibition in assay [1] is 3.22%; in assay [2], -2.07%; in [10], -1.04%; in assay [4], 11.7%; in assay [5], 2.12%; in assay [6], -3.99%. The inhibition is 4.32% in assay [12], 35.8% in assay [13] and 15.8% in [8].
`CN1CCC(=C2c3ccccc3CC(=O)c3sccc32)CC1`: the inhibition in assay [1] was 75.2%; in assay [9] it was -7.74%; in [10], 78.4%; in assay [11] it was 93.2%; in assay [3] it was 45.1%; in [4], 27.9%. The inhibition in [5] is -1.6%; in assay [6] it was 42.7%; in assay [12] it was 64.6%; in assay [13], 43.5%; in [8], 6.55%.
Turning to `OC[C@H]1O[C@@H](n2cnc3c(NC4CCCC4)ncnc32)[C@H](O)[C@@H]1O`, the inhibition was 7.74% in assay [1]; 11% in assay [2]; 7.78% in assay [9]; 28.3% in assay [3]; -3.16% in [4]; 51.9% in [5]. For the same compound, the figures for the inhibition in assay [7], in [12] and in [13] were 1.3%, 3.39% and -5.9%, respectively.
`O=C1O[C@]2(CC[C@H](C(=O)Nc3ccn(-c4ccccc4F)n3)CC2)c2cnccc21`: the inhibition was -5.81% in assay [1]; 2.41% in assay [9]; 0.42% in assay [10]; -6.98% in assay [11]; 5.31% in [4]; 4.97% in assay [5]. Also, the inhibition in assay [8] is 1.2%.
For `Clc1ccc(CCCOCCCN2CCCCC2)cc1`, the inhibition in [1] was 34.5%; in [2], 1.88%; in [9], 79.8%; in assay [10], 39.1%; in assay [11], 23.1%; in assay [3] it was 64.5%. In addition, the inhibition in assay [4] was 17.3%; in assay [5] it was 99.5%; in assay [6], 49.4%; in assay [12] it was 76.8%; in assay [13] it was -0.39%; in [8], -6.49%.
`CCOC(=O)c1cc(C#N)c(N2CCC(C(=O)NS(=O)(=O)Cc3ccccc3)CC2)nc1C`: the inhibition is 68.1% in [1]; -7.37% in [2]; 15% in assay [9]; 9.24% in [10]; 28.6% in assay [11]; -8.79% in assay [4]. Further, the inhibition in assay [5] was 44.3%; in [6], -0.84%; in [12] it was 18.3%; in assay [13], -2.81%.

One may read the inhibition as the drop in the measured response relative to a control, in per cent.
